Test results from PMC7552917, “Systematic exploration of different E3 ubiquitin ligases: an approach towards potent and selective CDK6 degraders” (Chemical Science, 2020).

How the values were obtained:
[1] = elog D7.4 by chromatographic (HPLC) method; type: physicochemical; conditions: Polaris C18-A column, pH 7.4, read-out: elog D7.4 (experimental distribution coefficient at pH 7.4)
Method: Supplementary Information: Physical Chemistry
N. Molecular Descriptor Calculation […]
O. Physicochemical Measurements
The determination of the elog D7.4 values was performed by a chromatographic method according to […]
The column was a Polaris C18-A column (2 mm I.D., 50 mm length, 3 μm particle size) from Agilent Technologies. A linear mobile phase gradient was applied with […] TRIS buffer adjusted to pH 7.4 and MeCN. Therefore, the gradient was run from 5% […]
between the runs with a constant flow-rate of 0.8 ml/min and a temperature of 25 °C. The output wavelength of the detector was set to 269.5 nm. In order to calibrate the log D7.4 to the retention time, 6 different drugs with known log D7.4 were dissolved in DMSO and 10 µl were injected […]
Approximately 1 mg of the samples was dissolved in DMSO and 5 µl were injected. Analyses were conducted in duplicates. Subsequently, the mean retention times of the analytes were taken to calculate their log D7.4 values with aid of the calibration line.

[2] = biological target: T1, CDK4 (Homo sapiens, UniProt P11802); assay: CDK4 degradation, western blot of MM.1S cells; type: cell-based; conditions: MM1.S; 0.1 μM, 16 h, MM.1S cells, normalized to DMSO (100%); read-out: D CDK4: remaining CDK4 levels
T1 construct: Percentage values are normalized to DMSO-treated MM.1S cells and the respective loading controls; endogenous in cells; host or cells: MM.1S (human multiple myeloma)
T1 sequence (P11802 whole entry): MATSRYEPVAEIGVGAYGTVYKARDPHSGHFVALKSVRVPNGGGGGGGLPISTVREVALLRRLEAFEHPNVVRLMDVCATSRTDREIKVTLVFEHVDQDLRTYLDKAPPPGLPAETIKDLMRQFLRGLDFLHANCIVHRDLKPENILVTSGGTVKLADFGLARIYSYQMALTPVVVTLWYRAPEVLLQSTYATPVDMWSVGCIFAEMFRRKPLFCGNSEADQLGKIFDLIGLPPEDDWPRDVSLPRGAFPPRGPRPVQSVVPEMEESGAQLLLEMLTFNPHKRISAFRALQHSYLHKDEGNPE
Excerpt: (§1) We determined the concentration of both kinases and CRBN, the latter in order to control the expression of the corresponding ligase. Since IMiDs, such as pomalidomide, cause the degradation of the lymphoid transcription factors Ikaros (IKZF1) and Aiolos (IKZF3) through the involvement of CRBN,[53],[54] this undesired effect was inspected. […] As further characteristics of CDK4/6d, the desired selectivity of CDK6 over CDK4 degradation and the unwanted influence on the IKZF1 concentration were determined. […] Next, we determined the concentration- and time-dependent activity of 11 (Fig. S2, ESI ^†).
(§2) Multiple myeloma, leukaemia, and murine cell lines:
(§3) After respective designated treatments, cells were washed with 1× PBS and lysed in IP lysis buffer (Pierce) containing HALT protease and phosphatase inhibitor cocktail (Thermo Scientific). Sodium dodecyl sulfate-polyacrylamide gel electrophoresis (SDS-PAGE) was performed with 5–20 µg of protein loaded per sample. Gel electrophoresis was carried out at a constant voltage. Proteins were transferred onto Immobilon-P transfer membranes (Millipore). Membranes were blocked with 5% milk in Tris Buffered Saline with 0.05% Tween 20 (TBS-T) followed by overnight incubation at 4 °C with shaking in primary antibodies diluted in 5% BSA in TBS-T. After incubation with respective secondary HRP-conjugated antibodies diluted in 5% milk in TBST, detection of proteins was performed using either WesternBright ECL HRP substrate or WesternBright Sirius HRP substrate (Advansta). Chemiluminescence was detected with ChemiDoc™ XRS+ System (Bio-Rad). For further detection of other proteins on the same membrane, membranes were subjected to incubation in Restore Western Blot Stripping Buffer, followed by re-blocking, and further probing of proteins was […]

[3] = biological target: T2, CDK6 (Homo sapiens, UniProt Q00534); assay: CDK6 degradation, western blot of MM.1S cells; type: cell-based; conditions: MM.1S cells; for remaining activity at 0.1 µM / remaining activity at 1 µM: MM1.S, normalized to DMSO (100%), read-out: D CDK6: remaining CDK6 levels; for remaining activity at 0.1 µM / Selectivity ratio D CDK4/D CDK6 for the degradation of CDK6 over CDK4 / remaining activity at 1 µM: 16 h; for remaining activity at 0.1 µM / Selectivity ratio D CDK4/D CDK6 for the degradation of CDK6 over CDK4: 0.1 μM
T2 construct: Percentage values are normalized to DMSO-treated MM.1S cells and the respective loading controls; endogenous in cells; host or cells: MM.1S (human multiple myeloma)
T2 sequence (Q00534 whole entry): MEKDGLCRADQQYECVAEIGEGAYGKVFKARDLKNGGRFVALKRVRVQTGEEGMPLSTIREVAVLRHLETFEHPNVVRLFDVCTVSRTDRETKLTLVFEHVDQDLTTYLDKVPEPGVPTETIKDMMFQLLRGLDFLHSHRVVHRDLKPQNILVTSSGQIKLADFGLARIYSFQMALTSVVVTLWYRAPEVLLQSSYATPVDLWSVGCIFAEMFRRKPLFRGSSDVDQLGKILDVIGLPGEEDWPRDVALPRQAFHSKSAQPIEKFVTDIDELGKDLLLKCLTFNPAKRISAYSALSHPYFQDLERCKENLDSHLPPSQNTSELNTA
Excerpt: as §1, §2, §3

[4] = system: MDA-MB-231 cells; assay: Cell viability assay (CellTiter-Glo), MDA-MB-231 breast cancer cells; type: cell-based, human; conditions: 96 h
Method: Breast cancer cell lines:
To access the compound effect on cell viability, cells were plated in 384-well tissue culture-treated plates (Greiner Bio One). Twenty-four hours later, tested compounds were added into culture to the desired concentrations. Cell viability was measured by using CellTiter-Glo® Luminescent Cell Viability Assay (Promega) at day 4 or day 7 post-treatment and normalized by non-treated controls. […]
Dose response curves were modeled and plotted by using GraphPad Prism software (GraphPad Software). Statistical analysis was performed using GraphPad Prism software (GraphPad Software).
Variance of biological replicates is represented as the standard error of the mean (SEM) or as the […]

[5] = biological target: T3, CDK6 (Mus musculus, UniProt Q64261); assay: CDK6 degradation in murine cell lines 32D and Ba/F3, western blot; type: cell-based; conditions: 16 h
T3 construct: western blotting experiments with the murine myeloid 32D cell line and the murine pro-B-cell line Ba/F3; endogenous in cells; host or cells: 32D (murine myeloid) and Ba/F3 (murine pro-B)
T3 sequence (Q64261 whole entry): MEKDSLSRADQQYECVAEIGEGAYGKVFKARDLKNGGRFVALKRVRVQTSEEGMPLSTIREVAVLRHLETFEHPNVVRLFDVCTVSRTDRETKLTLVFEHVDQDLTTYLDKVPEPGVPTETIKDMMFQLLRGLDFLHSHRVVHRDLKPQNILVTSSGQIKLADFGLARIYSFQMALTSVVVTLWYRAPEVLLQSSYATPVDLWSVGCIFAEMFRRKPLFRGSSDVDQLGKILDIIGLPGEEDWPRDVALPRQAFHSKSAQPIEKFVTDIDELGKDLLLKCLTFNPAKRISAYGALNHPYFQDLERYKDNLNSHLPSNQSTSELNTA
Excerpt: When bound to IMiDs, human CRBN induces the recruitment of the neosubstrates IKZF1 and IKZF3 via a Val-388 interaction,[53],[55] leading to their subsequent proteasomal degradation. […] The previously reported BRD4 degrader dBET1 was capable of binding to murine CRBN and performed as an active PROTAC in murine cells.[57],[58] To test whether our CRBN-based degrader 11 maintains CDK6 degradation across different species, we performed western blotting experiments with the murine myeloid 32D cell line and the murine pro-B-cell line Ba/F3 (Fig. 2A). […] While the activity of BSJ-03-123 (8) was attenuated at this concentration, 11 mediated on-target effects at concentrations as low as 10 nM (Fig. 2B).
Fig. 2 CDK6 degradation by CRBN-based degrader 11 is conserved in murine cell lines. (A) Human cell lines MM.1S and murine cell lines 32D and Ba/F3 were treated with vehicle, pomalidomide (POM), CDK6-selective degrader BSJ-03-123 (8), negative control 21, or PROTAC 11 at 0.1 μM for 16 h; (B) CDK6-degradation is induced in a dose-dependent manner in murine cells. Murine cell lines 32D and Ba/F3 were treated with PROTAC 11 at indicated concentrations for 16 h.
as §2
After respective designated treatments, cells were washed with 1× PBS and lysed in IP lysis buffer (Pierce) containing HALT protease and phosphatase inhibitor cocktail (Thermo Scientific). Sodium dodecyl sulfate-polyacrylamide gel electrophoresis (SDS-PAGE) was performed with 5–20 µg of protein loaded per sample. Gel electrophoresis was carried out at a constant voltage. Proteins were transferred onto Immobilon-P transfer membranes (Millipore). Membranes were blocked with 5% milk in Tris Buffered Saline with 0.05% Tween 20 (TBS-T) followed by overnight incubation at 4 °C with shaking in primary antibodies diluted in 5% BSA in TBS-T. After incubation with respective secondary HRP-conjugated antibodies diluted in 5% milk in TBST, detection of proteins was performed using either WesternBright ECL HRP substrate or WesternBright Sirius HRP substrate (Advansta). Chemiluminescence was detected with ChemiDoc™ XRS+ System (Bio-Rad). For further detection of other proteins on the same membrane, membranes were subjected to incubation in Restore Western Blot Stripping Buffer, followed by re-blocking, and further probing of proteins was carried out. Quantification was performed using ImageJ (National Institutes of Health). […]

[6] = design: method as in earlier work; conditions: calibration compounds; cited from earlier work
[7] = biological target: T4, IKZF1 (Homo sapiens, UniProt Q13422+Q96SW2); assay: Neosubstrate IKZF1 degradation, western blot of MM.1S cells; type: cell-based; conditions: MM1.S, 16 h, normalized to DMSO (100%), read-out: D IKZF1: remaining IKZF1 levels;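 note: test concentration 0.1 µM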
T4 construct: endogenous in cells; host or cells: MM.1S (human multiple myeloma)
T4 sequence (Q13422 whole entry): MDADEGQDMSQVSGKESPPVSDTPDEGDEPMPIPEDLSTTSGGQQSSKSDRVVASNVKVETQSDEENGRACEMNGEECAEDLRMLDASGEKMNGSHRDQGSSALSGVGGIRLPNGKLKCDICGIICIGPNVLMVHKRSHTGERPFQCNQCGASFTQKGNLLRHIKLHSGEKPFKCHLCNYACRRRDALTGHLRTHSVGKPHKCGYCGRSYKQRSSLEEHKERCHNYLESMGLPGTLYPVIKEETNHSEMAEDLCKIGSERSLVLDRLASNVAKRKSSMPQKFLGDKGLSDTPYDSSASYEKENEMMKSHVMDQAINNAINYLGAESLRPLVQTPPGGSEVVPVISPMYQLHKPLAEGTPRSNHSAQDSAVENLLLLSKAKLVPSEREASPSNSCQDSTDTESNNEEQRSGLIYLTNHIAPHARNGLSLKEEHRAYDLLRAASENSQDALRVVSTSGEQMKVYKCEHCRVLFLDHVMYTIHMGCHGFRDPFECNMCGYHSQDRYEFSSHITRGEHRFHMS
T4 sequence (Q96SW2 whole entry): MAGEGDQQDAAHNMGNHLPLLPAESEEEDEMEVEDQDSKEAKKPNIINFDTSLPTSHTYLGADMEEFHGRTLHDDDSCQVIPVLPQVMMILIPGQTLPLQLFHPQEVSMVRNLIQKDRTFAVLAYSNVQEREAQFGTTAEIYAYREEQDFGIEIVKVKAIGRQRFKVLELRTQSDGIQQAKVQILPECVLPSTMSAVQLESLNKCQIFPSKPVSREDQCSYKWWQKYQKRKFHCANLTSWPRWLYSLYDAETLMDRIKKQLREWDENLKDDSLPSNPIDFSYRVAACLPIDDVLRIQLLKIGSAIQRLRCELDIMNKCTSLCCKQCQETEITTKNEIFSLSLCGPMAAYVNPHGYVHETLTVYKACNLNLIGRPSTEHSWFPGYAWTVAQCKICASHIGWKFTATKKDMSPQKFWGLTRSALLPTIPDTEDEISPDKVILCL
T4 sequence (Q16531 whole entry partner): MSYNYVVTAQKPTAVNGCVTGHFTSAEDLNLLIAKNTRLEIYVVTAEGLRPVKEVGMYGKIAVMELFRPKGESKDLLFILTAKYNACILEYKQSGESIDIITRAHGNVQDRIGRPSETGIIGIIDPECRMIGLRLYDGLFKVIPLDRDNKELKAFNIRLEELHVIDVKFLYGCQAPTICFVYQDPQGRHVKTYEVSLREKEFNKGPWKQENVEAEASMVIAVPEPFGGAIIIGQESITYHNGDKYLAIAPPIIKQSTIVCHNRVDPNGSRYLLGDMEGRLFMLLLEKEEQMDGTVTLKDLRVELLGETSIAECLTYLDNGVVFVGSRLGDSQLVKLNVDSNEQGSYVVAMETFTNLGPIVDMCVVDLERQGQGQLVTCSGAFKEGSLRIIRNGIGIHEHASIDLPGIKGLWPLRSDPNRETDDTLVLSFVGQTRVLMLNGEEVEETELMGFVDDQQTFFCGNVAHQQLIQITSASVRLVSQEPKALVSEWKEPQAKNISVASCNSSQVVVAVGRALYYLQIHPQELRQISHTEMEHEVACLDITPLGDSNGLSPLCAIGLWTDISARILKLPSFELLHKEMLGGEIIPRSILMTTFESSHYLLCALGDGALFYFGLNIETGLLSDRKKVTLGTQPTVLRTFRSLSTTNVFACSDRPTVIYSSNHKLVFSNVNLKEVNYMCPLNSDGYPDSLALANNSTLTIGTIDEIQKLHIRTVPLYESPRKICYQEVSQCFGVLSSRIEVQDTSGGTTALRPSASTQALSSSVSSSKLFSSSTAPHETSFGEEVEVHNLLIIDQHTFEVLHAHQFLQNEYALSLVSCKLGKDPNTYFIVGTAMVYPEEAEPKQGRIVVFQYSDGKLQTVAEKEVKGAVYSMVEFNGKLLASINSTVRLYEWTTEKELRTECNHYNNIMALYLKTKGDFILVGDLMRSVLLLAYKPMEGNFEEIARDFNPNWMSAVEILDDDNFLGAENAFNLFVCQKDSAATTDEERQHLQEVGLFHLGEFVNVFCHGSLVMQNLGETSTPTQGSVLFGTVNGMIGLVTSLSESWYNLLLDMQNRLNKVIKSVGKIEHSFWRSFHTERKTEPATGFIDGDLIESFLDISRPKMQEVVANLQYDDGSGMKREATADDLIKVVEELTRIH
Excerpt: as §1, §2, §3

[8] = Susceptibility to hydrolysis in buffer, LC/MS; type: physicochemical; conditions: 37 °C
Method: Next, we investigated the persistence of CDK6 degradation after single drug exposure. […] The differences were even more pronounced when conducting a drug washout-step, showing that while BSJ-03-123 kept CDK6 protein below 50% for a maximum of 6 h, CDK6 degradation mediated by PROTACs 27 and 34 was more persistent and stable for up to 72 h (Fig. 4E and S10, ESI ^†). […] Since these degraders mainly differ in the ligase-binding part, we hypothesized that the deviations in the long-term experiments (Fig. 5A) are due to chemical inactivation of the CRBN ligand. We then tested compounds 27, 34 (VHL-based) and BSJ-03-123 (8, CRBN-based) for susceptibility to hydrolysis. These PROTACs were incubated in two different buffers for 24 h at 37 °C and aliquots were analysed by LC/MS.
Fig. 5 (A) Quantification of long-term treatment experiments (see Fig. S9, ESI ^†) and (B) drug stability data at pH 1 and pH 7.4. Acetonitrile solutions of the PROTACs were mixed with two different buffers and incubated for 24 hours at 37 °C. Subsequently, aliquots were analysed by LC/MS and normalized to acetonitrile solutions.

## CC(=O)c1c(C)c2cnc(Nc3ccc(N4CCN(CCCCCCCC(=O)N[C@H](C(=O)N5C[C@@H](O)C[C@H]5C(=O)NCc5ccc(-c6scnc6C)cc5)C(C)(C)C)CC4)cn3)nc2n(C2CCCC2)c1=O [compound 26]
[1]
  chromatographic logD: 3.2
[2]
  remaining activity at 0.1 µM: > 95%
[3]
  remaining activity at 0.1 µM: > 95%
[4]
  Inhibitory activity on cell viability relative to palbociclib: inhibitory activity comparable to palbociclib

## CC(=O)c1c(C)c2cnc(Nc3ccc(N4CCN(CCCCCCCC(=O)N[C@H](C(=O)N5C[C@H](O)C[C@H]5C(=O)NCc5ccc(-c6scnc6C)cc5)C(C)(C)C)CC4)cn3)nc2n(C2CCCC2)c1=O [compound 22]
[1]
  chromatographic logD: 3.3
[2]
  remaining activity at 0.1 µM: 12%
[3]
  Selectivity ratio D CDK4/D CDK6 for the degradation of CDK6 over CDK4: 4.1
  remaining activity at 0.1 µM: 2.9%
  remaining activity at 1 µM: 4.1%
[5]; Ba/F3 and 32D cells, 1 μM
  CDK6 degradation in murine cells: pronounced CDK6 degradation

## COc1ccc([C@@H]2Sc3ccccc3N(CCN(C)C)C(=O)[C@@H]2OC(C)=O)cc1 [Diltiazem]
[6]
  Lit. log D7.4: 2.70

## CC(=O)c1c(C)c2cnc(Nc3ccc(N4CCN(C(=O)CCCCCNc5cccc6c5C(=O)N(C5CCC(=O)NC5=O)C6=O)CC4)cn3)nc2n(C2CCCC2)c1=O (stereo not drawn) [compound 11]
[1]
  chromatographic logD: 3.4
[2]
  remaining activity at 0.1 µM: 25%
[3]
  Selectivity ratio D CDK4/D CDK6 for the degradation of CDK6 over CDK4: 2.3
  remaining activity at 0.1 µM: 11%
[7]
  remaining activity at 0.1 µM: 1%
[5]; 32D and Ba/F3 cells, 0.1 μM
  CDK6 degradation in murine cells: induced strong CDK6 degradation
[5]; 32D and Ba/F3 cells
  Lowest concentration mediating on-target effects (CDK6 degradation) in murine cells: 10 nM

## CC(=O)c1c(C)c2cnc(Nc3ccc(N4CCN(CCOCCOCCOc5cc(-c6scnc6C)ccc5CNC(=O)[C@@H]5C[C@H](O)CN5C(=O)[C@H](C(C)C)N5Cc6ccccc6C5=O)CC4)cn3)nc2n(C2CCCC2)c1=O [compound 32]
[1]
  chromatographic logD: 3
[2]
  remaining activity at 0.1 µM: 82%
[3]
  remaining activity at 0.1 µM: > 95%
[4]
  Inhibitory activity on cell viability relative to palbociclib: inhibitory activity comparable to palbociclib

## CC1(C)C(C=C(Cl)Cl)C1C(=O)OCc1cccc(Oc2ccccc2)c1 (stereo not drawn) [Permethrin]
[6]
  Lit. log D7.4: 6.50

## COCCc1ccc(OCC(O)CNC(C)C)cc1 (stereo not drawn) [Metoprolol]
[6]
  Lit. log D7.4: –0.06

## CC(=O)c1c(C)c2cnc(Nc3ccc(N4CCN(C(=O)CCCCOCCCCCOCCCCCCNc5cccc6c5C(=O)N(C5CCC(=O)NC5=O)C6=O)CC4)cn3)nc2n(C2CCCC2)c1=O (stereo not drawn) [compound 16]
[1]
  chromatographic logD: 4.6
[2]
  remaining activity at 0.1 µM: 76%
[3]
  Selectivity ratio D CDK4/D CDK6 for the degradation of CDK6 over CDK4: 2.4
  remaining activity at 0.1 µM: 32%
[7]
  remaining activity at 0.1 µM: 6.7%

## CC(=O)c1c(C)c2cnc(Nc3ccc(N4CCN(C(=O)COCCOCCNc5cccc6c5C(=O)N(C5CCC(=O)NC5=O)C6=O)CC4)cn3)nc2n(C2CCCC2)c1=O (stereo not drawn) [compound 12]
[1]
  chromatographic logD: 2.8
[2]
  remaining activity at 0.1 µM: 19%
[3]
  Selectivity ratio D CDK4/D CDK6 for the degradation of CDK6 over CDK4: 2.3
  remaining activity at 0.1 µM: 8.4%
[7]
  remaining activity at 0.1 µM: 0.8%

## CC(=O)c1c(C)c2cnc(Nc3ccc(N4CCN(CCOCCOCCOCCNC(=O)COc5cccc6c5C(=O)N(C5CCC(=O)NC5=O)C6=O)CC4)cn3)nc2n(C2CCCC2)c1=O (stereo not drawn) [8 (BSJ-03-123), BSJ-03-123, reference compound]
[1]
  chromatographic logD: 2.5
[2]
  remaining activity at 0.1 µM: 27%
[3]
  Selectivity ratio D CDK4/D CDK6 for the degradation of CDK6 over CDK4: 4.9
  remaining activity at 0.1 µM: 5.5%
  remaining activity at 1 µM: 2.1%
[3]; 0.1 μM for 16 h, then washout with PBS
  Time CDK6 degradation persists (CDK6 protein below 50%) after drug washout: ≤ 6 h
[3]; no washout
  Persistence of CDK6 degradation after single drug exposure (long-term treatment): began to recover after 24 h
[7]
  remaining activity at 0.1 µM: 82%
[5]; 32D and Ba/F3 cells, 0.1 μM
  CDK6 degradation in murine cells: attenuated
[8]; buffer pH 1, 24 h
  Stability to hydrolysis at pH 1: stable
[8]; buffer pH 7.4, 24 h
  Stability to hydrolysis at pH 7.4: pronounced decomposition
